Laboratory results from publication PMC7679387, “VZHE-039, a novel antisickling agent that prevents erythrocyte sickling under both hypoxic and anoxic conditions” (Scientific Reports, 2020).
Entries after “also recorded” stand apart in the source; their conditions may differ. Where two headings read alike, the source gives them in different places. Each block holds one molecule with its values, some of them ahead of it.

Assays:
HbA = molecular target: T1, HbA (Homo sapiens, UniProt P69905); assay: In vitro time-dependent Hb oxygen equilibrium study using normal whole blood (tonometry); type: cell-based; conditions: 2 mM, Hct 30%, 37 °C
T1 construct: fresh normal adult whole blood (Hct of 30%); from tissue; host or cells: normal adult whole blood (red blood cells)
From the text: The antisickling activity of aromatic aldehydes is dependent on Schiff-base interaction between the aldehyde moiety and the Hb αVal1 amines (Schiff-base adduct) and the increase in the protein affinity for oxygen[30]–[40]. […] To overcome this pharmacologic limitation, Tucaresol and Voxelotor, two potent antisickling agents utilized a ortho-hydroxyl moiety (relative to the aldehyde group) on the benzaldehyde ring to form intramolecular hydrogen-bond interaction with the aldehyde group to form hemiacetal-like moiety, which led to significant reduction in oxidative metabolism of the aldehyde[28],[50]. […] VZHE-039, however, incorporates this ortho-hydroxyl moiety on the benzene ring, which is expected to increase its oxidative metabolic stability. This was tested by incubating 2 mM of VZHE-039 (with vanillin and TD-7 as controls) with fresh normal adult whole blood (Hct of 30%) at 37 °C as a surrogate measure of oxidative metabolism. At defined time points (1, 4, 8, 12 and 24 h), aliquot samples were drawn, and subsequently analyzed for their P50-shifts relative to the initial P50 value, using three-point tonometry. In parallel, an untreated control sample was also assessed to control for any time-dependent, but drug-independent changes in P50 values. […] These findings confirm the importance of the ortho-hydroxyl group in aromatic aldehydes in preventing or reducing enzymatic metabolism of aldehyde in RBCs.
Normal whole blood samples (hematocrit 30%) in the absence (control) or presence of 2 mM concentration VZHE-039 (solubilized in DMSO) were incubated at 37 °C for 24 h with shaking (at 140 rpm). At 1, 4, 8, 12 and 24 h time intervals, aliquots of this mixture were removed and then subjected to OEC analysis using tonometry as previously described. Vanillin and TD-7 were used as positive controls, while DMSO was tested as negative control. Briefly, the compound-treated blood samples were incubated in IL 237 tonometers (Instrumentation Laboratories, Inc. Lexington, MA) for approximately 10 min at 37 °C, and allowed to equilibrate at oxygen tensions 6, 20, and 40 mmHg. The samples were then aspirated into an ABL 700 Automated Blood Gas Analyzer (Radiometer) to determine the pH, partial pressure of CO2 (pCO2), partial pressure of oxygen (pO2), and Hb oxygen saturation values (SO2). The measured values of pO2 (mmHg) and SO2 at each pO2 value were then subjected to a non-linear regression analysis using the program Scientist (Micromath, Salt Lake City, UT) to estimate P50 as previously reported.

Hb [1] = molecular target: T2, Hb (Homo sapiens, UniProt P69905); parameters: method as in PMID 30289405; conditions: previously observed, cited from earlier work
T2 construct: whole blood suspensions from subjects with homozygous SCD (Hct of 20%); from tissue; host or cells: whole blood / red blood cells of patients with homozygous SS sickle cell disease; lysate for HPLC and OEC

SS cells [2] = assay: Antisickling activity under anoxia (100% N2); type: cell-based, human; conditions: 2 mM, 100% N2 gas, 30 min
From the text: Therefore, another objective in the targeted design of VZHE-039 was to complement its O2-dependent antisickling activity—common to this class of aromatic aldehydes—with an improved O2-independent antisickling activity through proximity-enhanced auxiliary interactions with the αF-helix. Findings from the VZHE-039 crystallographic studies indicate that we achieved the structural objective of enhanced interactions between the methylhydroxy substituent and the αF-helix. We further asked whether these enhanced interactions would translate to an improvement in the O2-independent antisickling activity—as hypothesized. We therefore explored the potential O2-independent activity of VZHE-039, by testing its antisickling properties under complete deoxygenated/anoxic conditions (i.e., 100% N2). […] For internal control purposes, aliquots from samples used for testing for antisickling studies at 2.5% O2 (see above) were also used for testing the antisickling effect of these compounds under 100% N2 gas, therefore, helping elucidate the antisickling effects due to O2-dependent activity of the compounds. Since this experimental design utilized aliquots of the same samples under different gas conditions, it ensured that the assay was free of any potential errors associated with variability in hematocrit and accuracy in drug concentrations.
We conducted two studies to test the antisickling property of VZHE-039 under anoxia to establish the secondary mechanism of action. In the first study, we conducted antisickling studies as described above and also previously reported (2.5% O2)[33], using 2 mM concentrations of VZHE-039, and the controls vanillin, TD-7 and Voxelotor. After 1 h, aliquot samples were fixed with 2% glutaraldehyde without exposure to air. Then the incubation chamber was opened and exposed to air for 15 min to ensure complete re-oxygenation and reversal of the sickled cells to normal round cells. Reversal was confirmed by microscopy. The incubation chamber was then closed, and the assay was repeated under 100% nitrogen gas for 30 min, at which point aliquots were obtained and fixed. Aliquot samples were then subjected to microscopic morphological analysis of bright field images as previously described. Resulting sickled cells (percentages) were compared across samples, and between aliquots of the same samples that had been obtained either under 2.5% oxygen or 100% nitrogen.

SS cells [3] = test system: SS cells; parameters: method as in PMID 30289405; conditions: previously observed, cited from earlier work
HbS [4] = molecular target: T3, HbS (Homo sapiens, UniProt P69905); parameters: method as in PMID 30289405; conditions: previously observed, cited from earlier work
T3 construct: whole blood suspensions from subjects with homozygous SCD (Hct of 20%); from tissue; host or cells: whole blood / red blood cells of patients with homozygous SS sickle cell disease; lysate for HPLC and OEC

[5] = experimental animals and humans; cited from earlier work
Hb [6] = molecular target: T2, Hb; assay: Oxygen equilibrium (P50 shift) of lysates from SS cells, Hemox Analyzer; type: cell-based; conditions: 20% hematocrit
Description: (§1) For our previously studied compounds (e.g., INN-312, TD-7, SAJ-310, INN-298) that incorporate methoxyPy substitution to vanillin analogs, we observed a significant increase in functional and biological activity as a result of increased protein interactions[31],[33],[35],[36]. We therefore expected similar effects for VZHE-039, which we tested by following VZHE-039 activity (measured by Hb adduct formation, P50-shift and RBC sickling inhibition) using SS blood. Briefly, we incubated 0.5, 1, and 2 mM concentrations of VZHE-039 with whole blood suspensions from subjects with homozygous SCD (Hct of 20%) under hypoxic conditions (2.5% O2/97.5% N2) at 37 °C for 2 h for expected peak adduct. Aliquot blood samples were drawn into a fixative (2% glutaraldehyde solution), and sickling was assessed by microscopy[31],[33],[35],[36]. Aliquot samples were also subjected to cation-exchange HPLC analyses to assess the degree of Hb modification to the high-affinity adduct form (Hb adduct formation), as well as standard O2 equilibrium curves (OEC) to assess P50-shifts using hemox analyzer[31],[33],[35],[36]. […] The improved potency of Voxelotor has been attributed to reduced binding stoichiometry, i.e. while Voxelotor binds Hb at a 1:1 ratio, VZHE-039 binds Hb at a 2:1 ratio. […] This observation, as will be discussed later is likely due to a meaningful contribution from the novel O2-independent antisickling activity as result of the strong contact with the αF-helix.
(§2) The effect of VZHE-039 on RBC sickling, Hb modification, and Hb oxygen equilibrium was studied utilizing samples from consented individuals with homozygous SCD following previous procedure. Briefly, blood suspended in Hemox buffer and supplemented with glucose and bovine serum albumin, to a final hematocrit of 20% were incubated under air in the absence or presence of 0.5 mM, 1 mM and 2 mM VZHE-039 at 37 °C for 1 h. This was followed by incubating the suspensions under hypoxic conditions (2.5% O2/97.5% N2) at 37 °C for 2 h. Aliquot samples were obtained and fixed with 2% glutaraldehyde solution without exposure to air, and then subjected to microscopic morphological analysis of bright field images (at × 40 magnification) of single layer cells on an Olympus BX40 microscope fitted with an Infinity 2 camera (Olympus), and the coupled Image Capture software. Leftover samples were washed in phosphate-buffer saline, and hemolyzed in hypotonic lysis buffer for subsequent Hb-modification and oxygen equilibrium analyses.
For the oxygen equilibrium studies, 100 μL aliquot samples from the above clarified lysate were added to 4 mL of 0.1 M potassium phosphate buffer, pH 7.0, in cuvettes and subjected to hemoximetry analysis using a Hemox Analyzer (TCS Scientific Corp.) to determine the P50 values.

SS RBCs = assay: pO2-dependent degree of sickling in Hemox Analyzer; type: cell-based, human; conditions: 2 mM, Hct 20%
Description: In a confirmatory study, a pO2 dependent degree of sickling of VZHE-039 at 1 and 2 mM doses, with Voxelotor as a control was performed using a Hemox analyzer. […] Oksenberg et al.reported similar observations with Voxelotor[28], where the compound lost its potent antisickling activity at low pO2 values.
The second study established pO2 dependent degree of sickling of VZHE-039, with Voxelotor as a control. Concurrently, blood samples, hematocrit 20%, were incubated without any drug (control) or with 1, or 2 mM VZHE-039 at 37 °C for 1 h. A second control sample was incubated with 2 mM Voxelotor. At conclusion, 100 uL aliquots of each suspension were mixed with 2.5 mL Hemox buffer (pH 7.4, supplemented with antifoam), and transferred into the sample chamber of the Hemox Analyzer. Compressed air was then flushed through the sample to ensure complete oxygenation (at 150 mmHg). Nitrogen gas was then introduced into the sample chamber, and 50 uL aliquots were obtained and fixed at defined pO2 values. At conclusion, all fixed samples were subjected to microscopic analysis for their degree of sickling, and results were plotted using Prism Graph Pad software. The experiments were conducted in three replicates on different days, and mean and standard deviation values are reported.

SS cells [7] = assay: Antisickling study with SS cells under hypoxia (2.5% O2); type: cell-based, human; conditions: Homo sapiens, 20% hematocrit, […] O2, 37 °C, read-out: Sickling Inhibition
Description: as §1, §2

HbS [8] = molecular target: T3, HbS; assay: Hb modification (HbS adduct formation) by cation-exchange HPLC of lysates from SS cells; type: cell-based; conditions: for Hb Modification: SS cells, 20% hematocrit, HPLC of hemolysates
Description: as §1, §2
Finally, for the Hb adduct formation studies, the above clarified lysates were subjected to cation-exchange HPLC (Hitachi D-7000 Series, Hitachi Instruments, Inc., San Jose, CA), using a weak cation-exchange column (Poly CAT A: 30 mm × 4.6 mm, Poly LC, Inc., Columbia, MD). A commercial standard consisting of approximately equal amounts of composite HbF, HbA, HbS and HbC (Helena Laboratories, Beaumont, TX), was utilized as the reference for isotypes. The areas of new peaks, representing HbS adducts, were obtained, calculated as percentage fractions of total Hb area, and reported as levels of modified Hb.

[9] = cited from earlier work

T1 sequence (P69905 2-142 limits assumed): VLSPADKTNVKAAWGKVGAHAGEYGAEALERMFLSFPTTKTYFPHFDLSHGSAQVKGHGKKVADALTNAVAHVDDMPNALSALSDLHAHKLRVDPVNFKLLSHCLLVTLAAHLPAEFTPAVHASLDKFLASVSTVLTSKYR
T1 sequence (P68871 2-147 partner limits assumed): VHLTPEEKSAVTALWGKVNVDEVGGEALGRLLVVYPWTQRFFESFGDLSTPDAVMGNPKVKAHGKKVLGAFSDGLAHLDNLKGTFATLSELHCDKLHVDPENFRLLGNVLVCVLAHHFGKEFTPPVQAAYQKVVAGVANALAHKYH
T2 sequence (P69905 2-142): as the sequence (P69905 2-142 limits assumed) above
T2 sequence (P68871 with tags, fused parts or gaps E7V partner): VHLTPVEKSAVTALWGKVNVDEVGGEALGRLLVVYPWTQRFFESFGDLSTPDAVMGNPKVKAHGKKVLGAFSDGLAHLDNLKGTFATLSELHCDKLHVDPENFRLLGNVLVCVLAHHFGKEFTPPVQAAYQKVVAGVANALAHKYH
T3 sequence (P69905 2-142): as the sequence (P69905 2-142 limits assumed) above
T3 sequence (P68871 with tags, fused parts or gaps E7V partner): as the sequence (P68871 with tags, fused parts or gaps E7V partner) above

Compound: COc1ccc(OCc2cccc(CO)n2)c(C=O)c1 [TD-7]
Time of maximum effect (P50-shift) (HbA): 1 h | Reduction in activity (P50-shift) at 24 h (HbA; relative to maximum effect): ~ 45% | P50-shift (Hb [1]; 0.5 mM): 10% | P50-shift (Hb [1]; 1 mM): 28% | P50-shift (Hb [1]; 2 mM): 48% | Antisickling effect under anoxia (in words) (SS cells [2]): showed some antisickling effect under anoxia, it was significantly less potent than VZHE-039 | RBC sickling inhibition (SS cells [3]; 0.5 mM): 16% | RBC sickling inhibition (SS cells [3]; 1 mM): 29% | RBC sickling inhibition (SS cells [3]; 2 mM): 85% | Hb Modification (HbS [4]; 0.5 mM): 26% | Hb Modification (HbS [4]; 1 mM): 45% | Hb Modification (HbS [4]; 2 mM): 74%

P50 Shift (ΔP50) (Hb [6]; 0.5 mM): 41% | P50 Shift (ΔP50) (Hb [6]; 1 mM): 80%
Compound: CC(C)n1nccc1-c1ncccc1COc1cccc(O)c1C=O [Voxelotor, reference compound]
Half-life [5]: > 12 h | pO2-dependent sickling inhibition (in words) (SS RBCs): completely prevent sickling at high pO2; also recorded: lost this capability at low pO2 | Antisickling effect under anoxia (in words) (SS cells [2]): lost its inherent antisickling effects remarkably under anoxic conditions | inhibition at 500 µM (SS cells [7]; 0.5 mM): 56% | inhibition at 1000 µM (SS cells [7]; 1 mM): 98% | Hb Modification (HbS [8]; 0.5 mM): 55% | Hb Modification (HbS [8]; 1 mM): 100% | Hb modification (in words) (HbS [8]; 2 mM, samples of the anoxia study): complete Hb modification to the high-O2-affinity form | Partitioning into the RBC compartment [9]: 90%

Compound: O=Cc1c(O)cccc1OCc1ccc(C(=O)O)cc1 [Tucaresol, 4[2-formyl-3-hydroxyphenoxymethyl] benzoic acid]
Half-life [5]: > 12 h

Time course of P50-shift (in words) (HbA; 1-24 h): did not have any effects beyond 4 h
Compound: COc1cc(C=O)ccc1O [Vanillin, vanillin]
Antisickling effect under anoxia (in words) (SS cells [2]): showed no effect under anoxic conditions
